Measurements reported in patent US11324787B2, “Analytical methods and arrays for use in the same” (SENZAGEN AB, priority 2017, dated 2022).
Values joined by “and” are separate entries in the source; they are usually repeats but may differ in a detail not shown here. Identical values can stand only once. “Also recorded” adds a separate entry of the source. Like-named read-outs stand apart in the source and are kept apart here.

How the values were obtained:
[1] = tested on: myeloid cell line derived from MUTZ-3; experiment: Cytotoxicity / viability by flow cytometry (propidium iodide), 24 hours exposure; details: yes/no; MUTZ-3 derived cells
[2] = cited from earlier work; for binary class (HP*): based on human potency [41] where available, otherwise according to CLP; for HP: human potency, chemicals of random forest training and test set; for Human potency [41]: test set
[3] = tested on: myeloid cell line derived from MUTZ-3; experiment: GARD binary classification (SVM on GARD prediction signature, 200 transcripts); details: for GARD binary prediction: SVM, median calibrated decision value of replicates >0 = sensitizer
[4] = cited from earlier work; for binary class: sens / non-sens; for true CLP: test set
[5] = tested on: myeloid cell line derived from MUTZ-3
[6] = tested on: myeloid cell line derived from MUTZ-3; remark: listed apart in the source
[7] = tested on: myeloid cell line derived from MUTZ-3; experiment: GARD random forest model predicting CLP categories (52 transcripts, Example A); details: test set; for GARD predicted CLP: majority voting across replicates; for predicted CLP: separate replicates
[8] = tested on: myeloid cell line derived from MUTZ-3; remark: listed apart in the source
[9] = CLP annotation of 37 novel chemicals
[10] = Table 9, chemicals training set
[11] = chemicals of random forest training and test set

GARD predicted CLP [7]	predicted CLP [7]	Compound	cytotox [1]	binary class (HP*) [2]	HP [2]	GARD binary prediction [3]	CLP [4, 9]	CLP [4, 10]	CLP [4, 11]	binary class [4, 11]	other results
–	–	CC(C)C1=CC2=CC[C@@H]3[C@](C)(CCC[C@@]3(C)C(=O)O)[C@H]2CC1 [abietic acid]	no	S (HP 1-4 = S)	3	S	1B	1B	1B	sens	–
–	–	CC(C)=CCCC(C)=CC=O [citral]	yes	S (HP 1-4 = S)	3	S	1B	1B	1B	sens	–
–	–	CCCCCCOC(=O)c1ccccc1O [hexyl salicylate]	yes	S (HP 1-4 = S)	4	S	1A	1A	1A	sens	–
–	–	CCCCC/C(=C/c1ccccc1)CO [amylcinnamyl alcohol]	–	–	–	–	–	–	–	–	GARD binary prediction [5]: S; cytotox [6]: yes
–	–	Nc1ccccc1 [aniline]	–	–	–	–	–	–	–	–	GARD binary classification relative to cut-off defined by benchmark samples [5]: close to the cut-off
–	–	Cc1cccc(O)c1O [3-methylcatechol, 3-Methylcatechol]	yes	S (HP 1-4 = S)	–	S	1A	1A	1A	sens	–
1A	1A	CCCOC(=O)c1cc(O)c(O)c(O)c1 [propyl gallate]	yes	S (HP 1-4 = S)	2	S	1A	–	1A	sens	Human potency [41] [2]: 2; true CLP ([4]; per replicate line): 1A; true CLP [4]: 1A
–	–	CCCCCC#CC(=O)OC [methyl heptine carbonate]	yes	S (HP 1-4 = S)	2	S	1A	1A	1A	sens	–
–	–	CN(C)CCCN1c2ccccc2Sc2ccc(Cl)cc21 [chlorpromazine]	yes	S (HP 1-4 = S)	3	S	1A	1A	1A	sens	–
1B	no cat and 1B (2×)	C=CC(C)(O)CCC=C(C)C (stereo not drawn) [linalool]	no	S (HP 1-4 = S)	4	–	1B	–	1B	sens	Human potency [41] [2]: 4; CLP ([4]; Table 10, chemicals test set 1): 1B; true CLP ([4]; per replicate line): 1B; true CLP [4]: 1B
–	–	CCOC(=O)c1ccc(N)cc1 [benzocaine]	no	S (HP 1-4 = S)	4	–	1B	–	1B	sens	GARD binary classification relative to cut-off defined by benchmark samples ([3]; misclassified sensitizing chemicals): close to the cut-off
–	–	CCCCCCCCCCCCCC(=O)OC(C)C [isopropyl myristate]	no	NS (5-6 = NS)	5	–	1B	1B	1B	sens	–
–	–	Oc1c(Cl)c(Cl)c(Cl)c(Cl)c1Cl [pentachlorophenol]	no	NS (5-6 = NS)	5	–	1B	1B	1B	sens	–
–	–	CCOc1cc(C=O)ccc1O [ethyl vanillin]	–	–	–	–	–	–	–	–	GARD predicted CLP [8]: no cat; predicted CLP [8]: no cat; predicted CLP ([8]; human, 24 h): 1B
–	–	OCCNCCO [diethanolamine]	no	NS (5-6 = NS)	5	–	1B	1B	1B	sens	–
1B	1B	O=C(OCc1ccccc1)c1ccccc1 [benzyl benzoate]	yes	–	–	S	–	–	–	–	–
1A	1A (2×) and 1B	CC(C)(O)CCCC1=CCC(C=O)CC1 (stereo not drawn) [lyral]	yes	S (HP 1-4 = S)	2	S	1B	–	1B	sens	Human potency [41] [2]: 2; CLP ([4]; Table 10, chemicals test set 1): 1B; true CLP ([4]; per replicate line): 1B; true CLP [4]: 1B
–	–	CC(C)=CCCC(C)CCO (stereo not drawn) [citronellol]	no	NS (5-6 = NS)	5	S	1B	1B	1B	sens	–
1A	1A	O=CCCCC=O [glutaraldehyde]	yes	S (HP 1-4 = S)	2	S	1A	–	1A	sens	Human potency [41] [2]: 2; CLP ([4]; Table 10, chemicals test set 1): 1A; true CLP ([4]; per replicate line): 1A; true CLP [4]: 1A
–	–	CCCCOCC1CO1 (stereo not drawn) [butyl glycidyl ether]	–	–	–	–	–	–	–	–	GARD binary classification relative to cut-off defined by benchmark samples [5]: close to the cut-off; cytotox [6]: yes; GARD predicted CLP ([8]; human, 24 h): 1A

Compound	GARD predicted CLP [7]	predicted CLP [7]	cytotox [1]	binary class (HP*) [2]	HP [2]	GARD binary prediction [3]	CLP [4, 9]	CLP [4, 10]	CLP [4, 11]	binary class [4, 11]	other results
O=C1C=CC(=O)C=C1 [p-benzochinone, p-benzoquinone]	1A	1A	yes	–	–	–	–	–	–	–	–
Clc1nc(Cl)nc(Cl)n1 [cyanuric chloride]	no cat; also recorded: no category	no cat (2×) and 1B	yes	S (HP 1-4 = S)	–	–	1A	–	1A	sens	CLP ([4]; Table 10, chemicals test set 1): 1A; true CLP ([4]; per replicate line): 1A; true CLP [4]: 1A
CC(C)(c1ccc(OCC2CO2)cc1)c1ccc(OCC2CO2)cc1 (stereo not drawn) [bisphenol A-diglycidyl ether]	1A	1A	–	–	–	–	–	–	–	–	GARD binary prediction [5]: S
